In assay [1] the target is recombinant human Cathepsin K (Homo sapiens (Human), UniProt P43235). The assay is described as follows: Inhibition of Human Cathepsin K. The assay is classed as biochemical. As to conditions: substrate Z-Gly-Pro-Arg-AMC, 60 min room temperature. The text has this:
Inhibition of Human Cathepsin K Materials: Microtiterplates (Optiplate-384 F were purchased from PerkinElmer (Prod. No. 6007270). The substrate Z-Gly-Pro-Arg-AMC was from Biomol (Prod.-No. P-142). L-Cysteine (Prod. No. 168149) was from Sigma. Sodium actetate was from Merck (Prod.-No. 6268.0250), EDTA was from Fluka (Prod.-No. 03680). The inhibitor E-64 was purchased from Sigma (Prod.-No. E3132). The recombinant human Cathepsin K proenzyme was purchased from Biomol (Prod. No. SE-367). All other materials were of highest grade commercially available.
The following buffers were used: Activation buffer: 32.5 mM sodium acetate, adjusted to pH 3.5 with HCl; Assay buffer: 150 mM sodium acetate, 4 mM EDTA, 20 mM L-Cysteine, adjusted to pH 5.5 with HCl,
To activate the proenzyme, 5 μl procathepsin K were mixed with 1 ul activation buffer, and incubated at room temperature for 30 min.
5 μL test compound (final concentration 0.1 nM to 100 μM) in aqua bidest (containing 4% DMSO, final DMSO concentration 1%) were mixed with 10 uL of Cathepsin K in assay buffer (final concentration 2 ng/μL) and incubated for 10 min. Then 5 μL of substrate in assay buffer (final concentration 12.5 μM) were added. The plates were then incubated at room temperature for 60 min. Then, the reaction was stopped by adding 10 μL of E64 in assay buffer (final concentration 1 μM). The fluorescence in the wells was determined using a Molecular Devices SpectraMax M5 Fluorescence Reader (Ex 360 nm, Em 460 nm).
Each assay microtiter plate contains wells with vehicle controls (1% DMSO in bidest) as reference for non-inhibited enzyme activity (100% Ctl; high values) and wells with inhibitor (E64 in bidest+1% DMSO, final concentration 1 μM) as controls for background fluorescence (0% Ctl; low values). The analysis of the data was performed by calculating the percentage of fluorescence in the presence of test compound in comparison to the fluorescence of the vehicle control after subtracting the background fluorescence: (RFU(sample)−RFU(background))*100/(RFU(control)−RFU(background))
Data from these calculations were used to generate IC50 values for inhibition of Cathepsin K, respectively.

The next assay addresses recombinant human DPPI (Homo sapiens (Human), UniProt P53634). As to the kind of experiment: Inhibition of Human DPPI (Cathepsin C). The following applies: substrate Gly-Arg-AMC, 30 min room temperature. The assay is classed as biochemical. The text has this:
Inhibition of Human DPPI (Cathepsin C)
Materials: Microtiterplates (Optiplate-384 F) were purchased from PerkinElmer (Prod. No. 6007270). The substrate Gly-Arg-AMC was from Biotrend (Prod.-No. 808756 Custom peptide). Bovine serum albumin (BSA; Prod. No. A3059) and Dithiothreitol (DTT; Prod. No D0632) were from Sigma. TagZyme buffer was from Riedel-de-Haen (Prod.-No. 04269), NaCl was from Merck (Prod.-No. 1.06404.1000) and morpholinoethane sulfonic acid (MES), was from Serva (Prod.-No. 29834). The DPP1 inhibitor Gly-Phe-DMK was purchased from MP Biomedicals (Prod.-No. 03DK00625). The recombinant human DPPI was purchased from Prozymex. All other materials were of highest grade commercially available.
The following buffers were used: MES buffer: 25 mM MES, 50 mM NaCl, 5 mM DTT, adjusted to pH 6.0, containing 0.1% BSA; TAGZyme Buffer: 20 mM NaH2PO4, 150 mM NaCl adjusted to pH 6.0 with HCl
The recombinant human DPPI was diluted in TAGZyme buffer to 1 U/ml (38.1 μg/ml, respectively), and then activated by mixing in a 1:2 ratio with a Cysteamine aqueous solution (2 mM) and incubating for 5 min at room temperature.
Five uL test compound (final concentration 0.1 nM to 100 μM) in aqua bidest (containing 4% DMSO, final DMSO concentration 1%) were mixed with 10 μL of DPPI in MES buffer (final concentration 0.0125 ng/μL) and incubated for 10 min. Then, 5 μL of substrate in MES buffer (final concentration 50 μM) were added. The microtiter plates were then incubated at room temperature for 30 min. Then, the reaction was stopped by adding 10 μL of Gly-Phe-DMK in MES-buffer (final concentration 1 μM). The fluorescence in the wells was determined using a Molecular Devices SpectraMax M5 Fluorescence Reader (Ex 360 nm, Em 460 nm) or an Envision Fluorescence Reader (Ex 355 nm, Em 460 nm).
Each assay microtiter plate contained wells with vehicle controls (1% DMSO in bidest+0.075% BSA) as reference for non-inhibited enzyme activity (100% Ctl; high values) and wells with inhibitor (Gly-Phe-DMK, in bidest+1% DMSO+0.075% BSA, final concentration 1 μM) as controls for background fluorescence (0% Ctl; low values).
The analysis of the data was performed by calculating the percentage of fluorescence in the presence of test compound in comparison to the fluorescence of the vehicle control after subtracting the background fluorescence using the following formula: (RFU(sample)−RFU(background))*100/(RFU(control)−RFU(background))
Data from these calculations were used to generate IC50 values for inhibition of DPPI, respectively.

By IC50 is commonly meant the concentration that inhibits the measured activity by half.

The structures appear in SMILES notation.

Chain of recombinant human Cathepsin K (P43235 115-329): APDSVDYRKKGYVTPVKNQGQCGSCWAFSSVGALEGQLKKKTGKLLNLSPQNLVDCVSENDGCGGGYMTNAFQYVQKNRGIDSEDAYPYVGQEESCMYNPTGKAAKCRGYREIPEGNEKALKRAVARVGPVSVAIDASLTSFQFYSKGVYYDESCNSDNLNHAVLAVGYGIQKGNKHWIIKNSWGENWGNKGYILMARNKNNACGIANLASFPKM
Chain of recombinant human DPPI (P53634 231-394): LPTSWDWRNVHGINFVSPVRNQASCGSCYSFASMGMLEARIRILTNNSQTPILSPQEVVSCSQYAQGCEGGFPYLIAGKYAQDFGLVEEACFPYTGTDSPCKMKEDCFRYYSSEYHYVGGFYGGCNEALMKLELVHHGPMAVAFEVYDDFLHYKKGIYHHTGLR
Chain of recombinant human DPPI (P53634 395-463): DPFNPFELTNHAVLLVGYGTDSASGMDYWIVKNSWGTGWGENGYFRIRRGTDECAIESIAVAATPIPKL
Chain of recombinant human DPPI (P53634 25-134): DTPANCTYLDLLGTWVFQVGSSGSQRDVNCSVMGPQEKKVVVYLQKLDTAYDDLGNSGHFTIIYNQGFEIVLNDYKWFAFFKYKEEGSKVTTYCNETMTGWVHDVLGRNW

As to `CC1(C)OC(=O)c2ccc(-c3ccc(C[C@@H](C#N)NC(=O)C45CCC(CC4)CN5)c(F)c3)cc21` [Example 27], the results for the IC50 (in assay [1]; on recombinant human DPPI) were 1700 nM and 2.2 nM, respectively.
`CN1Cc2cc(-c3ccc(C[C@@H](C#N)NC(=O)C45CCC(CC4)CN5)cc3)ccc2C1=O` [Example 4]: the IC50 in assay [1] was 6300 nM; on recombinant human DPPI, 50.1 nM.
In the same order, the values of `COCCN1C(=O)Cc2ccc(-c3ccc(C[C@@H](C#N)NC(=O)C45CCC(CC4)CN5)c(F)c3)cc21` [Example 26] are 1100 nM and 4.3 nM.
Regarding `CN1C(=O)Cc2ccc(-c3ccc(C[C@@H](C#N)NC(=O)C45CCC(CC4)CN5)cc3)cc21` [Example 2], the figures for the IC50 (in assay [1]; on recombinant human DPPI) were 6700 nM and 17.1 nM, respectively.
In the same order, the values of `N#C[C@H](Cc1ccc(-c2ccc3c(c2)NC(=O)C3)cc1F)NC(=O)C12CCC(CC1)CN2` [Example 23] are 600 nM and 6.6 nM.
The like results for `N#C[C@H](Cc1ccc(-c2ccc3c(c2)CCNC3=O)cc1F)NC(=O)C12CCC(CC1)CN2` [Example 22] were, in that order, 2300 nM and 6.8 nM.
The like results for `CN1C(=O)Cc2ccc(-c3ccc(C[C@@H](C#N)NC(=O)C45CCC(CC4)CN5)c(F)c3)cc21` [Example 28] were, in that order, 2200 nM and 4.9 nM.
In the case of `CS(=O)(=O)c1ccc(-c2ccc(C[C@@H](C#N)NC(=O)C34CCC(CC3)CN4)c(F)c2)cc1` [Example 21, N-[(1S)-1-cyano-2-[2-fluoro-4-(4-methanesulfonylphenyl)phenyl]ethyl]-2-azabicyclo[2.2.2]octane-1-carboxamide], the results for the IC50 (in assay [1]; on recombinant human DPPI) were 800 nM and 17 nM, respectively.
For the molecule `N#C[C@H](Cc1ccc(-c2csc(C(N)=O)c2)cc1F)NC(=O)C12CCC(CC1)CN2` [Example 31], the figures for the IC50 (in assay [1]; at recombinant human DPPI) were 800 nM and 4.3 nM, respectively.

The values above are taken from patent US8889708B2 (Boehringer Ingelheim International GmbH, priority 2013, dated 2014).
